In article PMC7111291 (European Journal of Medicinal Chemistry, 2020):
Like-named read-outs stand apart in the source and are kept apart here.

Tests used:
[1] = test system: wild type HIV-1 (VSVG/HIV-1wt); assay: microbe, parasite or virus in culture; assay type: cell-based; conditions: for EC50: read-out: EC50±SD
VSVG/HIV-1RT-K103N,V108I = assay type: cell-based
VSVG/HIV-1RT-K103N,G190A = assay type: cell-based
VSVG/HIV-1RT-Y181C = assay type: cell-based
VSVG/HIV-1RT-Y188L = assay type: cell-based; conditions: for EC50: read-out: EC50±SD
VSVG/HIV-1RT-K103N = assay type: cell-based
HIV-1 RT Ribonuclease H = HIV-1 RT Ribonuclease H (Human immunodeficiency virus type 1 group M subtype B, UniProt P04585); assay: Ribonuclease H activity detection; assay type: biochemical
HEK 293T cells = assay type: cell-based, human; conditions: read-out: CC50±SD, 48 h
[2] = Human immunodeficiency virus 1, HEK-293T

With `O=C1Nc2ccc(Cl)cc2[C@@](C#CC2CC2)(C(F)(F)F)O1` [EFV, efavirenz] the EC50 [1, 2] was 0.7 ± 0.2 nM, the EC50 [1] was 1 nM and the “Mean change (fold) in EC50 compared to wild type” value (shortened to “Mean change (fold) in EC50”) (VSVG/HIV-1RT-K103N,V108I) was 0.06 ± 0.01 (55.5) fold. The “Mean change (fold) in EC50” value (VSVG/HIV-1RT-K103N,G190A) was 0.18 ± 0.01 (183.0) fold, the “Mean change (fold) in EC50” value (VSVG/HIV-1RT-Y181C) was 0.002 ± 0.0001 (1.7) fold and the “Mean change (fold) in EC50” value (VSVG/HIV-1RT-Y188L) was 0.12 ± 0.03 (124.3) fold. The “Mean change (fold) in EC50” value (VSVG/HIV-1RT-K103N) was 0.03 ± 0.003 (27.0) fold.

`CCCOn1cc(CC(=O)Nc2ccncc2Cl)c2ccccc21` [Compound 10f, N-(3-Chloropyridin-4-yl)-2-(1-propoxy-1H-indol-3-yl)acetamide] was tested, and the EC50 [1] was 70 nM and the IC50 (HIV-1 RT Ribonuclease H) was > 100 µM.

In the case of `CCCOn1cc(C(=O)C(=O)Nc2ccncc2Cl)c2ccccc21` [Compound 14, N-(3-Chloropyridin-4-yl)-2-oxo-2-(1-propoxy-1H-indol-3-yl)acetamide], the “infectivity when treated with the compound (percentage in parentheses)” value [1] is reported as >10; (131.6 ± 0.60%), the EC50 [1] is reported as > 10000 nM and the CC50 (HEK 293T cells) is reported as 20.9 ± 5.11 µM.

With `Cc1ccnc2c1NC(=O)c1cccnc1N2C1CC1` [NVP, nevirapine, reference compound] the EC50 [1, 2] was 30 ± 3 nM, the EC50 [1] was 20 nM and the EC50 (VSVG/HIV-1RT-Y188L) was > 100 µM.

Work on `CCCOn1cc(C(O)C(=O)Nc2ccncc2Cl)c2ccccc21` (stereo not shown) [Compound 15, N-(3-Chloropyridin-4-yl)-2-hydroxy-2-(1-propoxy-1H-indol-3-yl)acetamide] yielded an EC50 [1] of 2010 ± 60 nM and a CC50 (HEK 293T cells) of 19 ± 2.31 µM.

`CCCCOn1cc(CC(=O)Nc2ccncc2Cl)c2ccccc21` [Compound 10i, 2-(1-Butoxy-1H-indol-3-yl)-N-(3-chloropyridin-4-yl)acetamide] was tested, and the EC50 [1, 2] was 60 ± 0.5 nM and the IC50 (HIV-1 RT Ribonuclease H) was > 100 µM.

For `CCCOn1cc(CC(=O)Nc2ccccc2Cl)c2ccccc21` [Compound 6d, N-(2-Chlorophenyl)-2-(1-propoxy-1H-indol-3-yl)acetamide], the EC50 [1] was 490 nM, the IC50 (HIV-1 RT Ribonuclease H) was > 100 µM and the EC50 (VSVG/HIV-1RT-Y188L) was > 10 µM.
